# Reference: PMC5697638, “Identification of a Potent Phosphoinositide 3‐Kinase Pan Inhibitor Displaying a Strategic Carboxylic Acid Group and Development of Its Prodrugs” (Chemmedchem, 2017)
# Assays:
# [1] = tested on: PI3K/Akt signaling in PC3 cells; test: PI3K/Akt signaling, Western blot, PC3 cells; format: cell-based; conditions: 12 h treatment, immunoblot
# Experimental: PC3 cells were treated with the indicated concentrations of 64 for 12 h. At the end of treatment, cells were harvested and total cell lysates were prepared. Immunoblot analysis was performed to analyze the expression levels of p‐Akt (T308 and S473), p‐PRAS40 (T246; a target of Akt), as well as the levels of p‐p70S6K (T389), p‐GSK3α/β (S9), and p‐FOXO3A (T32). The figure is representative of at least three independent experiments.
# Western blot analysis: PC3 cells were seeded in 96‐well plates in the presence of free Dulbecco's modified Eagle's medium (DMEM) high‐glucose GlutaMAX^TM (Gibco), 10 % fetal bovine serum (Invitrogen) supplemented with 5000 U mL^−1 penicillin–streptomycin (Gibco). Subsequently, PC3 cells were incubated with increasing concentrations of […] for 12 h. Cells were then lysed with a lysis buffer containing 20 mM Tris‐HCl pH 8, 138 mM NaCl, 2.7 mM KCl, 1 mM CaCl2, 5 mM EDTA pH 8, 1 mM MgCl2, 5 % glycerol, 1 % Triton X‐100, and protein extracts were analyzed by Western blot analysis. […]
# hPI3K‐C2α (PIK3C2A) = hPI3K‐C2α (PIK3C2A) (Homo sapiens, UniProt O00443); test: lipid kinase assay (ADP-Glo), PI3K-C2α; format: biochemical; conditions: Table 2; mean of at least three determinations, 95 % confidence intervals; read-out: IC50 PI3Kc2α
# Experimental: In vitro selection, lipid kinase assay: To determine the inhibitory activity of the new molecular entities on PI3K enzyme, a lipid kinase assay was performed: recombinant proteins (30 ng), human PI3Kα (PIK3CA/PIK3R1, #1161‐1165‐1 ProQinase–Germany), hPI3Kβ (PIK3CB wt/PIK3R1, #1168‐1165‐1 ProQinase, Germany), hPI3Kγ (PIK3CG, #1163‐0000‐1 ProQinase, Germany), hPI3Kδ (PIK3CD/PIK3R1, #1162–1165‐1 ProQinase, Germany), hPI3K‐C2α (PIK3C2A, #14‐906 Merck Millipore_Merck KGaA, Germany), hPI3K‐C2β (PIK3C2B, #14‐907 Merck Millipore_Merck KGaA, Germany), hPI3K‐c2γ (PIK3C2G, #1207‐0000‐1 ProQinase, Germany), and hVps34 (PIK3C3, #1160‐0000‐1 ProQinase, Germany), were incubated in kinase buffer {12.5 μL; 20 mM Tris‐HCl pH 7.5, 10 mM MgCl2, 10 μM ATP, 0.05 mg mL^−1 BSA, 0.5 mM EDTA, 5 mM HEPES pH 7.5, for PI3Kα,PI3Kβ, PI3Kγ, PI3Kδ, PI3KC‐2α, and PI3KC‐2γ; 15 mM MnCl2, 5 mM EGTA, 100 μM ATP, 50 mM HEPES pH 7.5, 100 mM NaCl, and 0.03 % CHAPS for PI3K‐C2β and VPS34 {BSA=bovine serum albumin; EDTA=ethylenediaminetetraacetic acid; HEPES=4‐(2‐hydroxyethyl)‐1‐piperazineethanesulfonic acid; EGTA=ethylene glycol‐bis(2‐aminoethylether)‐N,N,N′,N′‐tetraacetic acid; CHAPS=3‐[(3‐cholamidopropyl)dimethylammonio]‐1‐propanesulfonate}. In the reaction, the ATP concentration used for different PI3Ks was defined on the basis of the Michaelis–Menten kinetics of each enzyme, provided by the supplier. […]
# PI3Kδ = biological target: T1, PI3Kδ (Homo sapiens, UniProt O00329); test: Lineweaver–Burk plot, inhibition mode against PI3Kδ; format: biochemical; conditions: ATP 5-100 μM; 37 at 5, 10, 20 nM
# T1 construct: purchased ProQinase, Germany 1162–1165‐1
# Experimental: Figure 6 Inhibition mode of 37 against PI3Kδ isoform. Lineweaver–Burk plot, 1/v versus 1/[ATP]. The inhibition assay was performed by using varying concentrations of ATP (5, 10, 25, 50, and 100 μM) and fixed concentrations of PI3Kδ recombinant protein (2.4 μg mL^−1) and lipids (1 mg mL^−1 PI/PS lipid micelles mixture) in the presence or absence of different concentrations of 37 (5, 10, and 20 nM).
# Lineweaver–Burk plot: The linear phase of the kinetic reaction was defined with 2.4 μg mL^−1 of PI3Kδ in a 20 min reaction time. In the presence of increasing concentrations of 37 (5, 10 and 20 nM), the PI3K lipid kinase activity (for the assay method see “In vitro selection, lipid kinase assay” in the Experimental Section) was assayed at various concentrations of ATP (5, 10, 25, 50, and 100 μM) and in the presence of 0.5 mg mL^−1 lipid micelles (1:1 phosphatidylinositol/phosphatidylserine). A Lineweaver–Burk plot was obtained by plotting 1/v, for which v represents pmol min^−1 of ADP produced in the reaction measured with the ADP‐Glo Kinase Assay kit from Promega (#V9102) versus 1/[ATP] (the inverse of the ATP concentration). The minus‐enzyme control was obtained by incubating phosphatidylinositol in the absence of PI3Kδ.
# T1 sequence (O00329 whole entry): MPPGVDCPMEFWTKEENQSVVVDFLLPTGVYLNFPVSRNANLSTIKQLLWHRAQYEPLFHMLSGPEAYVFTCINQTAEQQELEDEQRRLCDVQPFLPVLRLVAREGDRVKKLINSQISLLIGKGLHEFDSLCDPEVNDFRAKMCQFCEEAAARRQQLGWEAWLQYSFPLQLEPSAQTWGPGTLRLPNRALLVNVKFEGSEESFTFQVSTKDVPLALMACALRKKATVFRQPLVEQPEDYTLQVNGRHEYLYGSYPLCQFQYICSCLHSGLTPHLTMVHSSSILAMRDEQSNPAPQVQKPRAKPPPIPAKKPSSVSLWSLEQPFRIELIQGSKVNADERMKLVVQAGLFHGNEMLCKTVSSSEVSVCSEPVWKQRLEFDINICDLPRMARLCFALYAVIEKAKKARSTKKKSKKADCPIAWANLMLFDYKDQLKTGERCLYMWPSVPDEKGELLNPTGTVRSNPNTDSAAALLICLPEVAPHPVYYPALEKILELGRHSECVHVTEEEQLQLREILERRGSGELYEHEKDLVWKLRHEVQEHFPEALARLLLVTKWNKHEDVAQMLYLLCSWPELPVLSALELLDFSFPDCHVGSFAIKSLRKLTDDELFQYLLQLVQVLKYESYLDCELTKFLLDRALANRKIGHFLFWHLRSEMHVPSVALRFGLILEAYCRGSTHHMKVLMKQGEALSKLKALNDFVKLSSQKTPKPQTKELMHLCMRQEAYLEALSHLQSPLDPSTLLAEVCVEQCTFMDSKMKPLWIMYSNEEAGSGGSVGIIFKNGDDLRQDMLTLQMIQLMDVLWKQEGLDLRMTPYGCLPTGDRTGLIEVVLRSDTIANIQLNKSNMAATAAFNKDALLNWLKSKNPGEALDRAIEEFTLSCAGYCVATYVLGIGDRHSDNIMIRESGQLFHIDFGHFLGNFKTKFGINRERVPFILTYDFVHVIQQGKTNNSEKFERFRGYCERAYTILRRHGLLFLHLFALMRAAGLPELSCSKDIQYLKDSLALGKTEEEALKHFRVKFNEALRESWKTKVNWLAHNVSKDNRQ
# T1 sequence (P27986 whole entry partner): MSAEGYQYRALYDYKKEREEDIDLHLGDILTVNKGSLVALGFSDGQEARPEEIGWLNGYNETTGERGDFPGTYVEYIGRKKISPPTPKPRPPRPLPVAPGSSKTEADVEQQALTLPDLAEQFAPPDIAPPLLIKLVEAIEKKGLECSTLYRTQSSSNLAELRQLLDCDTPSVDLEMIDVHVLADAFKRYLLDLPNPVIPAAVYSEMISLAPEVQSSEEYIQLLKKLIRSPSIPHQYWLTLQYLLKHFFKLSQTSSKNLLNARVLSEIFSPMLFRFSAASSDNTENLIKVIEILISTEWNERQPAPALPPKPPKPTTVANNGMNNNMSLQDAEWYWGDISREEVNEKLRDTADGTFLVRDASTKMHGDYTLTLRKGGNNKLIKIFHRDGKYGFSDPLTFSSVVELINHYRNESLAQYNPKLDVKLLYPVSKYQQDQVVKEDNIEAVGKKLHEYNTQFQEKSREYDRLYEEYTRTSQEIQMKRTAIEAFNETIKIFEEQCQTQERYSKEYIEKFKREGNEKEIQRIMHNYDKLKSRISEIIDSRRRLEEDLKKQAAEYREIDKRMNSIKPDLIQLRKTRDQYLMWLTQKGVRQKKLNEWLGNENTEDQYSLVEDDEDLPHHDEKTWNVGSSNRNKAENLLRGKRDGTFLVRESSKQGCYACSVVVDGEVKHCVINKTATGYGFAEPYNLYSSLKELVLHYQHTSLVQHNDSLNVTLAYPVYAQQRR
# Sequence of hPI3K‐C2α (PIK3C2A) (O00443 whole entry): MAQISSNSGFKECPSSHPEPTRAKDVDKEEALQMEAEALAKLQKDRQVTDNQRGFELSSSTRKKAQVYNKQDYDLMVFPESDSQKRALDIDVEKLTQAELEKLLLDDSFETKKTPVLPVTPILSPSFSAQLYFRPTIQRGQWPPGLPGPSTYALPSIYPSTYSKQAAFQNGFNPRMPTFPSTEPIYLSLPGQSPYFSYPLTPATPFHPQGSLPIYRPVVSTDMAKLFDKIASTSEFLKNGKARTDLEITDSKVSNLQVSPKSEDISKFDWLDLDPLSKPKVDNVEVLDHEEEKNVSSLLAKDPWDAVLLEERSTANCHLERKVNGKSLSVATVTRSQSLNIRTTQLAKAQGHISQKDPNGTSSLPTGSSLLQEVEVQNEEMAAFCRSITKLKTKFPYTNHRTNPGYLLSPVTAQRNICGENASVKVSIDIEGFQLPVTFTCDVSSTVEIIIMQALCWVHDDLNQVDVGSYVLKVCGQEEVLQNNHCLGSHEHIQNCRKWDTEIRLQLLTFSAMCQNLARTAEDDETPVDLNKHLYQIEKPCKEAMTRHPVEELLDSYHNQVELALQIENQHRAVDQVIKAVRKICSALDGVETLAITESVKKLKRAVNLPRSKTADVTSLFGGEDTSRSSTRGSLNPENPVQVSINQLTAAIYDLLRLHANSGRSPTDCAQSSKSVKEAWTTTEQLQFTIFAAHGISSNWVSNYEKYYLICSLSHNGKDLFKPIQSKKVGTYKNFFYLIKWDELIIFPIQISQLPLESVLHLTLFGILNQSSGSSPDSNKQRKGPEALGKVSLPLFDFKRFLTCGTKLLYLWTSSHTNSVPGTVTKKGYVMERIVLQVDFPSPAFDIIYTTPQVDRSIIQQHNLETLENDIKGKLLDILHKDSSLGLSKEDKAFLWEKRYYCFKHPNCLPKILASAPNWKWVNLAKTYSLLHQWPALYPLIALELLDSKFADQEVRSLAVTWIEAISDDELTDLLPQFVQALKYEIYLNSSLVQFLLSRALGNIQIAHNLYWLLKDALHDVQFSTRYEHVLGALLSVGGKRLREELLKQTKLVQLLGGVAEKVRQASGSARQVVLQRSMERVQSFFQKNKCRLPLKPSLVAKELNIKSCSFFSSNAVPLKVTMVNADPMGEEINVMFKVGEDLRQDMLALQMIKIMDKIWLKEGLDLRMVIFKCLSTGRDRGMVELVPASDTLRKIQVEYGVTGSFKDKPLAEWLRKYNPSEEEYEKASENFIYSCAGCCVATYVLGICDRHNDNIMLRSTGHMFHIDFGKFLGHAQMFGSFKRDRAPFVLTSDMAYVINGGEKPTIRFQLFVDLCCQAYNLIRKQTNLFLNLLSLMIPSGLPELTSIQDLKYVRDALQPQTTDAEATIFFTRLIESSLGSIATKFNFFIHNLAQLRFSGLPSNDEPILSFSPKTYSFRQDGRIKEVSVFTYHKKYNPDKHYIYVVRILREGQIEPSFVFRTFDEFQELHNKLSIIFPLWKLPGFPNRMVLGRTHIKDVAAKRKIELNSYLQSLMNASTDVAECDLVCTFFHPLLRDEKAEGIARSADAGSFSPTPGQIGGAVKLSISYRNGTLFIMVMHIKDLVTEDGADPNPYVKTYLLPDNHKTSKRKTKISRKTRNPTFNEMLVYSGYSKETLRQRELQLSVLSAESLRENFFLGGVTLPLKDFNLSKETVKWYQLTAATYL
SMILES,levels of p-Akt and Akt effectors [1],IC50 (hPI3K‐C2α (PIK3C2A)) [µM],inhibition mode against PI3Kδ (PI3Kδ)
"COC(=O)c1cccc(Cn2cc(-c3cccc4c(=O)cc(N5CCOCC5)[nH]c34)nn2)c1 [Compound 64, Methyl 3‐{[4‐(2‐morpholino‐4‐oxo‐1,4‐dihydroquinolin‐8‐yl)‐1H‐1,2,3‐triazol‐1‐yl]methyl}benzoate]","attenuated, in a dose‐dependent manner, the levels of p‐Akt",–,–
"O=C(O)c1cccc(Cn2cc(-c3cccc4c(=O)cc(N5CCOCC5)[nH]c34)nn2)c1 [Compound 37, 3‐{[4‐(2‐Morpholino‐4‐oxo‐1,4‐dihydroquinolin‐8‐yl)‐1H‐1,2,3‐triazol‐1‐yl]methyl}benzoic acid]",–,3.7 ± 1.1,ATP‐competitive inhibitor
